This is an account of results in PMC10092844, “Inhibition profile of trifludimoxazin towards PPO2 target site mutations” (Pest Management Science, 2022).

Changes are numbered by the printed parent chain.

One experiment has as its target T1, PPO2 R128E ΔG210 (Amaranthus tuberculatus, UniProt Q0NZW9, DEL210/R128E).
T1 sequence (Q0NZW9 with tags, fused parts or gaps R128E/DEL210): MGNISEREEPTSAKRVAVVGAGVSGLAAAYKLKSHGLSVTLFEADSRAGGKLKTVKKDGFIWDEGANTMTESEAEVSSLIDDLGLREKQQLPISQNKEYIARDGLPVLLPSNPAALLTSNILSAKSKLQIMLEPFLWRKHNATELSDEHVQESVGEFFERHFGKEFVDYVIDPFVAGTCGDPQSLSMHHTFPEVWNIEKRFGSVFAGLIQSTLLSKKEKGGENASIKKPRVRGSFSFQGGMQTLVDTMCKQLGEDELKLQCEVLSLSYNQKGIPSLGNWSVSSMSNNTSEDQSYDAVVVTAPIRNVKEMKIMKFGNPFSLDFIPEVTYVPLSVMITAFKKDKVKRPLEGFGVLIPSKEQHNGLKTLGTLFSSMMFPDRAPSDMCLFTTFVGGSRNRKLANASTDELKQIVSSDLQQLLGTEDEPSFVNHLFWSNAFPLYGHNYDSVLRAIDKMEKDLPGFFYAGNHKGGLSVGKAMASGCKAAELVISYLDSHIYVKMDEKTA
The experiment is described as follows: biochemical. Type of experiment: biochemical.

The target in the next experiment is T2, PPO2 G399A (Amaranthus tuberculatus, UniProt Q0NZW9, G398A).
T2 sequence (Q0NZW9 31-534 G398A): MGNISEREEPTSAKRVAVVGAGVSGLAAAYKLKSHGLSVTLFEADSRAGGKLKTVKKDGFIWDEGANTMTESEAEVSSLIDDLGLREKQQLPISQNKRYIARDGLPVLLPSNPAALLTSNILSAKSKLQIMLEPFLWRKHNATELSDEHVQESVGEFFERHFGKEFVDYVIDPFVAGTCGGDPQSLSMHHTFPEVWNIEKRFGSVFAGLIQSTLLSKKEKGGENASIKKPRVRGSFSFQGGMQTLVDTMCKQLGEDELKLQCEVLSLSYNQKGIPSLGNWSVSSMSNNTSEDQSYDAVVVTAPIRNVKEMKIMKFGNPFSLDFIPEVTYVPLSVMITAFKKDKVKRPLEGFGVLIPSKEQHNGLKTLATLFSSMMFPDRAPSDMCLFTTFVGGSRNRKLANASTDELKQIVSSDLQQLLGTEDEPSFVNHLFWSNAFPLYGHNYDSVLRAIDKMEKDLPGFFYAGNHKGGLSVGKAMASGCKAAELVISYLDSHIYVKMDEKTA
The experiment is described as follows: biochemical. In kind it is biochemical.

The target of the next experiment is T3, PPO2 R128C ΔG210 (Amaranthus tuberculatus, UniProt Q0NZW9, DEL210/R128C).
T3 sequence (Q0NZW9 with tags, fused parts or gaps R128C/DEL210): T1 sequence (Q0NZW9 with tags, fused parts or gaps R128E/DEL210) with E98C
Briefly: biochemical. Type of experiment: biochemical.

The target in experiment [1] is T4, PPO2 R128Q ΔG210 in Escherichia coli hemG (Amaranthus tuberculatus, UniProt Q0NZW9, DEL210-210/R128Q, cells depend on it).
T4 sequence (Q0NZW9 with tags, fused parts or gaps R128Q/DEL210-210): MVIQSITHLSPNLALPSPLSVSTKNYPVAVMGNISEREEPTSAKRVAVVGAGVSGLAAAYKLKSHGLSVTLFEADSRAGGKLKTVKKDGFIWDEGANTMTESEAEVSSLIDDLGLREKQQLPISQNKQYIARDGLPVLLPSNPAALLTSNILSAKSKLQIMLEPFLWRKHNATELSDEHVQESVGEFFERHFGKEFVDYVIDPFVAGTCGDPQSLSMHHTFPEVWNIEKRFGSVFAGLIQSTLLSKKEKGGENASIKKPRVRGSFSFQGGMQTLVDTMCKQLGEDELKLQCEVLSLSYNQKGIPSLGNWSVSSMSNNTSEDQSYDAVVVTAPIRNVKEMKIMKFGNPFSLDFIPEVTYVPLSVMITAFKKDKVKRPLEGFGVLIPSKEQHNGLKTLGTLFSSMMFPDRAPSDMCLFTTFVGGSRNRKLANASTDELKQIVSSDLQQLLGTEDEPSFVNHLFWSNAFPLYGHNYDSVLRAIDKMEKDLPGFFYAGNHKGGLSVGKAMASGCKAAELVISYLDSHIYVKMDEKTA
Type of experiment: cell-based. The settings on record: read-out: IC50 (E. coli hemG growth).

Experiment [2] concerns the target T5, PPO2 R128M ΔG210 in Escherichia coli hemG (Amaranthus tuberculatus, UniProt Q0NZW9, DEL210-210/R128M, cells depend on it).
T5 sequence (Q0NZW9 with tags, fused parts or gaps R128M/DEL210-210): T1 sequence (Q0NZW9 with tags, fused parts or gaps R128E/DEL210) with E98M
In kind it is cell-based. Particulars: read-out: IC50 (E. coli hemG growth).

One may read the IC50 as the concentration needed to halve the response being measured. For the compound `CS(=O)(=O)NC(=O)c1cc(Oc2ccc(C(F)(F)F)cc2Cl)ccc1[N+](=O)[O-]` [Fomesafen, fomesafen], the concentration for half-maximal inhibition (IC50) on PPO2 R128E ΔG210, against PPO2 G399A and against PPO2 R128C ΔG210 was more than 10000 nM throughout.

As to `CC(C)N(C)S(=O)(=O)NC(=O)c1cc(-n2c(=O)cc(C(F)(F)F)n(C)c2=O)c(F)cc1Cl` [Saflufenacil, saflufenacil], the IC50 against PPO2 R128E ΔG210 was more than 10000 nM; in experiment [1] it was more than 10000 nM; on PPO2 G399A it was 627 nM; in experiment [2], more than 10000 nM; against PPO2 R128C ΔG210 it was more than 10000 nM.

`C#CCN1C(=O)C(F)(F)Oc2cc(F)c(-n3c(=O)n(C)c(=S)n(C)c3=O)cc21` [Trifludimoxazin, trifludimoxazin]: the IC50 came to 8.61 nM on PPO2 R128E ΔG210; 9.86 nM in experiment [1]; 1.17 nM at PPO2 G399A; 67.4 nM in experiment [2]; 31.1 nM against PPO2 R128C ΔG210. The Resistance factor is 35 on PPO2 R128E ΔG210 and 127 on PPO2 R128C ΔG210.

For the compound `CCOC(=O)C(C)OC(=O)c1cc(Oc2ccc(C(F)(F)F)cc2Cl)ccc1[N+](=O)[O-]` (centres unmarked) [Lactofen, lactofen], the IC50 is 649 nM at PPO2 R128E ΔG210; more than 10000 nM in experiment [1]; 1580 nM at PPO2 G399A; more than 10000 nM in experiment [2]; 2150 nM against PPO2 R128C ΔG210.
